# Data from ChEMBL document CHEMBL1201862, “PubChem BioAssay data set” (2004).
# Activity calls are given as the source filed them. For most assays here, no stated cut-off is given here; in the data, actives have a measured EC50 and inactives only a lower limit.
# Key:
# [1] = viability of PTEN-deleted HCT116 cells – cell-based, HCT116 PTEN knockout, dose response (AID 1047); type: functional;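 further: HCT116 colon tumor cells with PTEN knocked out; cells exposed to compound for 60 hours before readout; potency for loss of cell viability measured by luminescence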
# [2] = viability of HCT116 lacking mutant beta-catenin – cell-based, human colon tumor, dose response (AID 1045); type: functional;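 further: HCT116 colon tumor cells with beta catenin knocked out; cells exposed to compound for 60 hours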
# [3] = molecular target: T1, Rac GTPase-activating protein 1 (Homo sapiens, UniProt Q9H0H5); assay: blockers of MgcRacGAP-driven Rac1 GTP hydrolysis – biochemical, ADP Hunter fluorescence, primary and confirmatory, confirmation (AID 624330); type: functional
# T1 sequence (Q9H0H5 whole entry): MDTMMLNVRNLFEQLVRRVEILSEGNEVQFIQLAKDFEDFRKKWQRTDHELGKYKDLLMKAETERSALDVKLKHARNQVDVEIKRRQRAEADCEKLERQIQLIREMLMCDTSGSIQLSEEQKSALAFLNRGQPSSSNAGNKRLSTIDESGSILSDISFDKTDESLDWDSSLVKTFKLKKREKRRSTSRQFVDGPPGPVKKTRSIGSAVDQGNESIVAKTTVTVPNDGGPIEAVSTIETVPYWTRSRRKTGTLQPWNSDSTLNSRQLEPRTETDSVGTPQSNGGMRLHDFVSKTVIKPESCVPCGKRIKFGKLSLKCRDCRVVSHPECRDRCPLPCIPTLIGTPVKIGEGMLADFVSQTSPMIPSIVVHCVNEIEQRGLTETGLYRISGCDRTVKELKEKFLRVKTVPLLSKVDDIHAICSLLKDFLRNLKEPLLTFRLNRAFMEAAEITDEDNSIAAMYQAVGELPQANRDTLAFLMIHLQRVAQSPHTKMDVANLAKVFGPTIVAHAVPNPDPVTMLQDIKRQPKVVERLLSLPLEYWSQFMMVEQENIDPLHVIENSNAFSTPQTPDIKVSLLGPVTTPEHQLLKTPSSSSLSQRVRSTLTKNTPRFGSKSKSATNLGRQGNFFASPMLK
# [4] = NIH-3T3 fibroblast cytotoxicity, dose response, cytotoxicity control, cell-based, fluorescence, Alamar Blue, secondary assay (AID 2327); type: functional;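 further: NIH-3T3 mouse fibroblasts cultured with fluconazole at 8 µg/mL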
# [5] = fluconazole-exposed Candida albicans growth modulators – fluorescence, retest, confirmation (AID 2467); type: functional, cell-based
# [6] = microbe, parasite or virus in culture; type: functional; settings: Mycobacterium tuberculosis
# [7] = Trypanosoma cruzi growth suppression in host cells – NIH3T3 host cells, beta-gal luminescence, confirmation (AID 2044); type: functional, cell-based;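 further: intracellular parasites grown in NIH/3T3 mouse fibroblasts as host cells; luminescent beta-galactosidase reporter signal from transgenic T. cruzi replicating inside host cells; inhibitors lower the luminescence signal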
# [8] = NIH3T3 cell viability loss – ATP luminescence, mouse fibroblasts, counter-screen, dose response (AID 2010); type: functional, cell-based;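 further: cells exposed to compound for about 90 hours before reading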
# INS1 = assay: INS-1E survival protection against cytokine death – cell-based, luminescence, retest, dose response (AID 449756); type: functional; settings: Rattus norvegicus;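 further: cell death triggered by IL-1 beta plus TNF-alpha plus IFN-gamma mixture; protective hits raise ATP signal compared with cytokine alone wells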
# [9] = viability of uninfected HEp-2 cells – cell-based, HTS, cytotoxicity control for RSV inhibitor project, dose response (AID 2410); type: functional; settings: human respiratory syncytial virus
# [10] = Luminescence Cell-Based Dose Confirmation HTS to Identify Activators of 5'UTR Stem-Loop Driven Alpha-Synuclein mRNA Translation in H4 Neuroglioblastoma Cells. [Related pubchem assays: 1829 (Project Summary), 1814 (Primary HTS)]; type: functional
# [11] = Luminescence Cell-Based Dose Response HTS to Identify Activators of Luciferase Translation or Activity in H4 […] Cells. [Related pubchem assays: 1829 (Project Summary), 1814 (Primary HTS)]; type: functional
# H4 = assay: Luminescence Cell-Based Dose Response HTS to Identify Activators of 5'UTR Stem-Loop Driven Prion Protein mRNA Translation in H4 Neuroglioblastoma Cells. [Related pubchem assays: 1829 (Project Summary), 1814 (Primary HTS)]; type: functional; settings: Homo sapiens
# [12] = molecular target: T2, Ubiquitin-conjugating enzyme E2 N (Homo sapiens, UniProt P61088); type: functional;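 further: Dose-response confirmation in a TR-FRET assay detecting UBC13-driven polyubiquitin chain formation, inhibition measured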
# T2 sequence (P61088 whole entry): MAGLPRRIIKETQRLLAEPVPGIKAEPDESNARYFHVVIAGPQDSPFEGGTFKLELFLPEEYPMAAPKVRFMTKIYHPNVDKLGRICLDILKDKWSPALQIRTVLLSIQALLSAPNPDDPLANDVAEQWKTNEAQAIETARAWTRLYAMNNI
# [13] = tested on: Streptococcus sp. 'group A'; assay: Streptococcus pyogenes SK(-)GAS viability under kanamycin – luminescence, BacTiterGlo, confirmation, counter-screen for streptokinase expression inhibitor project, dose response (AID 1900); type: functional, organism-based
# Streptokinase A = molecular target: T3, Streptokinase A (Streptococcus pyogenes serotype M1, UniProt P10520); assay: viability-normalized secreted streptokinase activity reduction – plasminogen activation absorbance, OD405, dose response (AID 1914); type: functional, Streptococcus pyogenes M1 GAS;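 further: secreted streptokinase activity via plasminogen activation per viability signal from cell pellet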
# T3 sequence (P10520 whole entry): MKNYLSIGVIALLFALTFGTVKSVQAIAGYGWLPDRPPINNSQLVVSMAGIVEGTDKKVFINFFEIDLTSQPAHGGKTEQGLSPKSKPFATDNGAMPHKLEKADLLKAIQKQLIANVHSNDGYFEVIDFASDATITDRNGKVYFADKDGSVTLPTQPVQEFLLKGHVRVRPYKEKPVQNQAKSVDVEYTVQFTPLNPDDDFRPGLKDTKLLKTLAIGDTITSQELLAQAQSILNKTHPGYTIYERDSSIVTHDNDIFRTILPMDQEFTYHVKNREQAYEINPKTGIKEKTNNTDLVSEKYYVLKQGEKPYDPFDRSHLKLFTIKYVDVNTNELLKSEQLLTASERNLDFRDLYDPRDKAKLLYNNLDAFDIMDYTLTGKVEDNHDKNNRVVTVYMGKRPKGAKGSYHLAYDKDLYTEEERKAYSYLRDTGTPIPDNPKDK
# Streptococcus = assay: GAS UMAA2166 growth inhibition – luminescence, BacTiterGlo, counter-screen for streptokinase expression inhibitor project, dose response (AID 1915); type: functional, organism-based;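 further: potency for reduction of bacterial viability or growth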
# [14] = Luminescence Cell-Based Dose Retest to Confirm Inhibitors of Cancer Stem Cells. [Related pubchem assays (depositor defined):AID2717, AID2721]; type: functional; settings: Homo sapiens
# [15] = molecular target: Luciferin 4-monooxygenase (Photinus pyralis, UniProt P08659); assay: inhibition of purified Photinus pyralis luciferase – biochemical, luminescence, dose response (AID 1891)
# Luciferin 4-monooxygenase, sequence (P08659 whole entry): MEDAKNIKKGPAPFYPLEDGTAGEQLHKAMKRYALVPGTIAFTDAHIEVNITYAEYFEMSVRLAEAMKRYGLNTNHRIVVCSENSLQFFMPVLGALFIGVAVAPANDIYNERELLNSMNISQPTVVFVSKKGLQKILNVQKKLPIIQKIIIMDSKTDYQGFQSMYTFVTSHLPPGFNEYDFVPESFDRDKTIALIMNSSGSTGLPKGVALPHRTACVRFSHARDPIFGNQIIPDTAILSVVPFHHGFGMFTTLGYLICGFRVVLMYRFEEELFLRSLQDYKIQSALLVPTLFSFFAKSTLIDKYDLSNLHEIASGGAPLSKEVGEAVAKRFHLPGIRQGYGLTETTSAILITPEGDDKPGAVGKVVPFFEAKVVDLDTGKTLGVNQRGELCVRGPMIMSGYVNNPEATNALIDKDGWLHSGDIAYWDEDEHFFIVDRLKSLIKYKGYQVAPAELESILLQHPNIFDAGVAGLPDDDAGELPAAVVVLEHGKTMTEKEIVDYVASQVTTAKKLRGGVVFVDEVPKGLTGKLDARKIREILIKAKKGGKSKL
# [16] = Luminescence Cell-Based Dose Confirmation HTS to Identify Inhibitors of Platelet Dense Granule Release. [Related pubchem assays: 1663 (Primary HTS), 1678 (Summary of Project)]; type: functional
structure (smiles),measurement,setting,value
O=C(Cn1c(=O)oc2cc(S(=O)(=O)N3CCCCC3)ccc21)N1CCc2ccccc21,EC50,[1],18.4 µM (active)
same,EC50,[2],16.9 µM (active)
Cc1cccc2c(N)c3c(nc12)N(C)CC3,IC50,[3],115 µM (active)
CSC(S)=NCc1cccnc1,EC50,[4],> 160 µM (inactive)
same,EC50,[5],1.13 µM (active)
same,CC50,[6],9.84 µM (active)
CC1(C)CC(N2CCN(Cc3ccccc3)CC2)=CC(=[N+]2CCCCC2)C1,EC50,[4],> 160 µM (inactive)
same,EC50,[5],2.72 µM (active)
same,EC50,[7],0.289 µM (active)
same,EC50,[8],> 60 µM (not active)
same,AC50,INS1,2.16 µM (active)
Nc1ncccc1OCc1ccc(Cl)c(Cl)c1,CC50,[9],9.61 µM (active)
CCOc1ccc(-c2c(=O)n(OCc3ccc([N+](=O)[O-])cc3)c3ccccc3[n+]2[O-])cc1,EC50,[10],> 120 µM (not active)
same,EC50,[11],> 120 µM (not active)
same,EC50,H4,> 120 µM (not active)
CCn1cc(SCC(=O)N2CCOCC2)c2ccccc21,EC50,[10],5.63 µM (active)
same,EC50,[11],82.1 µM (active)
same,EC50,H4,> 120 µM (not active)
CCOC(=O)c1sc(NC(=O)Nc2ccc(Cl)cc2)nc1C,EC50,[1],63.5 µM (active)
same,EC50,[2],80.8 µM (active)
O=[N+]([O-])c1ccc(-n2cnc3ccccc32)c([N+](=O)[O-])c1,EC50,[7],0.485 µM (active)
same,EC50,[8],> 60 µM (inconclusive)
same,AC50,INS1,14.3 µM (active)
Cc1ccc(/C=C/C2=NN(Cc3ccccc3Cl)C(=O)CC2)cc1,CC50,[9],16.6 µM (active)
COCC(=O)O[C@]1(CCN(C)CCCc2nc3ccccc3[nH]2)CCc2cc(F)ccc2[C@@H]1C(C)C,CC50,[6],14.2 µM (active)
same,IC50,[12],> 20 µM (inactive)
Cc1ccccc1-c1nnc(SCc2ccccc2)o1,EC50,[10],7.97 µM (active)
same,EC50,[11],62.5 µM (active)
CC(C)C[C@H]1CN=C(Nc2ccccc2)N1CCC(C)c1ccccc1 (stereo partly drawn),AC50,INS1,9.62 µM (active)
COc1ccc(C2Nc3ccc4ccccc4c3-c3c2c(=O)oc2ccccc32)cc1 (stereo not drawn),EC50,[7],0.204 µM (active)
same,EC50,[1],9 µM (active)
same,EC50,[8],> 60 µM (not active)
same,EC50,[2],9.13 µM (active)
Cc1ccc(C(=O)N2N=C(c3ccc(NS(C)(=O)=O)cc3)CC2c2cccs2)cc1 (stereo not drawn),CC50,[6],> 40 µM (active)
CC12CCC(c3c(C(=O)Nc4nccs4)nn(-c4ccccc4)c31)C2(C)C (stereo not drawn),EC50,[13],6.56 µM (active)
same,EC50,Streptokinase A,28.5 µM (active)
same,EC50,[1],38.1 µM (active)
same,EC50,[2],24.2 µM (active)
same,EC50,Streptococcus,> 150 µM (not active)
CC[C@H](C)Cc1cn([C@@H](CCCCNC(=O)OC(C)(C)C)C(=O)NCCCCCCCCCCC(=O)N2CCN(C(=O)OC(C)(C)C)CC2)nn1,AC50,INS1,7.02 µM (active)
CC(C)c1ccc2c(c1)CCC1C(C)(CN)CCCC21C (stereo not drawn),EC50,[4],9.63 µM (inconclusive)
same,EC50,[5],> 38 µM (not active)
same,CC50,[6],7.48 µM (active)
O=C(CSCC(=O)N1CCOCC1)Nc1nc(-c2ccc3c(c2)OCO3)cs1,EC50,[10],86.3 µM (active)
same,EC50,[11],56.1 µM (active)
same,EC50,H4,> 120 µM (not active)
COc1cccc(CNCc2ccco2)c1O,IC50,[3],117 µM (active)
CN1C(=O)C(CC(=O)Nc2ccccc2F)N(NC(=O)c2ccc(Br)cc2)C1=S (stereo not drawn),CC50,[9],6.39 µM (active)
CCC1=NN2C(=N)/C(=C\c3ccc(OCCOc4ccccc4)c(OC)c3)C(=O)N=C2S1,EC50,[10],9.45 µM (active)
same,EC50,[11],8.4 µM (active)
same,EC50,H4,5.43 µM (active)
Cc1cc2cc(C)c3nnc(SCC(=O)Nc4ccc(S(=O)(=O)N5CCCCC5)cc4)n3c2cc1C,EC50,[1],7.79 µM (active)
same,EC50,[2],7.24 µM (active)
N#C/C(=C\c1ccc(-c2ccc(Br)cc2)o1)C(=O)NCCc1c[nH]c2ccccc12,CC50,[6],> 40 µM (active)
C#CCN(C(=O)c1cc(COc2cccc(C(F)(F)F)c2)on1)C1CCCCC1,AC50,INS1,> 120 µM (inactive)
CC(C)c1ccc2[nH]c(O)c(N=NC(=O)c3cccc(S(=O)(=O)N4CCCCC4)c3)c2c1,CC50,[9],7.69 µM (active)
same,EC50,[13],4.39 µM (active)
same,EC50,Streptokinase A,> 150 µM (not active)
same,EC50,[7],0.58 µM (active)
same,EC50,[8],> 60 µM (not active)
same,EC50,Streptococcus,110 µM (active)
Cc1ccc2nc(-c3cccc(-c4cccc(Cl)c4)c3)c(NCc3ccccc3)n2c1,AC50,[14],4.01 µM (active)
same,AC50,INS1,7.9 µM (active)
O=C(NCc1ccccn1)C(=O)Nc1nc(C23CC4CC(CC(C4)C2)C3)cs1,EC50,[13],1.66 µM (active)
same,CC50,[6],36 µM (active)
same,EC50,Streptococcus,6.91 µM (active)
Cc1c(C(=O)OCC(=O)N2C(C)CCCC2C)oc2ccccc12 (stereo not drawn),EC50,[10],14.6 µM (active)
same,EC50,[11],28.7 µM (active)
same,EC50,H4,72.9 µM (active)
COc1ccc(S(=O)(=O)N2CCN(C(=O)c3ccc([N+](=O)[O-])o3)CC2)cc1,EC50,[10],> 120 µM (not active)
same,EC50,[11],7.51 µM (active)
same,EC50,H4,7.96 µM (active)
same,EC50,[7],0.103 µM (active)
same,EC50,[8],> 30 µM (not active)
Oc1ccc(Cc2ccc(Cl)cc2)c(O)c1,IC50,[3],69.5 µM (active)
O=[N+]([O-])c1ccc(N=Nc2ccc(O)cc2O)cc1,EC50,[13],2.44 µM (active)
same,EC50,Streptokinase A,> 50 µM (not active)
same,EC50,[15],1.05 µM (active)
same,EC50,[16],3 µM (active)
same,EC50,Streptococcus,24.6 µM (active)
CCn1c(=O)c(C(=O)Nc2ccccn2)c(O)c2ccccc21,AC50,INS1,30.2 µM (active)
Cc1ccc(-c2nnc(S)n2/N=C/c2c(C)nn(-c3ccccc3)c2C)cc1,EC50,[1],25.8 µM (active)
same,EC50,[2],26 µM (active)
N/N=C(\Cc1cscn1)c1ccc(O)cc1O,EC50,[15],> 112 µM (not active)
same,EC50,[16],62.6 µM (active)
same,IC50,[3],53.3 µM (active)
O=C1C(/C=N/CCCN2CCCC2=O)=C(O)c2ccccc21,EC50,[10],14.8 µM (active)
same,EC50,[11],5.6 µM (active)
same,EC50,H4,12.9 µM (active)
COc1ccc(C(=O)N/N=C/C(=O)c2ccccc2)cc1,EC50,[10],5.67 µM (active)
same,EC50,[11],1.9 µM (active)
same,EC50,H4,6.93 µM (active)
CN1CCN(/N=C/c2ccc(Cl)c(Cl)c2)CC1,EC50,[10],34.9 µM (active)
same,EC50,[11],31.7 µM (active)
same,EC50,H4,2.16 µM (active)
CCOc1ccccc1/C=c1\sc2ncnn2c1=O,IC50,[3],48.7 µM (active)
COc1cc(/C=N/NC(=O)CCC(=O)Nc2ccc(F)cc2)ccc1O,IC50,[3],35.8 µM (active)
C/N=c1\scc(C)n1/N=C/c1cc(Br)c(O)c(Br)c1,IC50,[3],77 µM (active)
